Measured values from patent US5233036A, “Rapamycin alkoxyesters” (American Home Products Corporation, priority 1992, dated 1993).
Converted amounts (≈) assume the structure as drawn. Read-outs that look alike come from different tables or passages of the source.

How the values were obtained:
[1] = system: Candida albicans; assay: Plate test procedure for measurement of inhibition (antifungal activity); format: cell-based
Protocol: The following represents the typical procedure used. Compound to be tested was placed on sterile dried 1/4" plate disks, and allowed to dry. Agar plates were seeded with fungi and allowed to solidify. The impregnated disks were placed on the seeded Agar surface and incubated for the time required for the particular culture. Results are expressed in MIC (μg/ml) to inhibit growth.

[2] = system: thymocyte proliferation; assay: Comitogen-induced thymocyte proliferation procedure (LAF); format: cell-based, BALB/c mice; conditions: for LAF (ratio): ratio relative to rapamycin (rapamycin 1.0), 72 h culture, PHA and IL-1
Protocol: (§1) Immunosuppressive activity was evaluated in an in vitro standard pharmacological test procedure to measure lymphocyte proliferation (LAF) and in two in vivo standard pharmacological test procedures. The first in vivo procedure was a popliteal lymph node (PLN) test procedure which measured the effect of compounds of this invention on a mixed lymphocyte reaction and the second in vivo procedure evaluated the survival time of a pinch skin graft.
Briefly, cells from the thymus of normal BALB/c mice are cultured for 72 hours with PHA and IL-1 and pulsed with tritiated thymidine during the last six hours. […] Cells are harvested and incorporated; radioactivity is determined. Inhibition of lymphoproliferation is assessed in percent change in counts per minute from non-drug treated controls. The results are expressed by the following ratio, or as the percent inhibition of lymphoproliferation of 1 μM. [formula]

[3] = system: pinch skin graft; assay: Survival time of pinch skin graft; format: in vivo, male DBA/2 donors transplanted to male BALB/c recipients; conditions: intraperitoneal; mean ± S.D.
Protocol: as §1
The second in vivo test procedure is designed to determine the survival time of pinch skin graft from male DBA/2 donors transplanted to male BALB/c recipients. The method is adapted from Billingham R. E. and Medawar P. B., J. Exp. Biol. 28:385-402, (1951). Briefly, a pinch skin graft from the donor is grafted on the dorsum of the recipient as a homograft, and an autograft is used as control in the same region. […] Untreated recipients serve as rejection control. The graft is monitored daily and observations are recorded until the graft becomes dry and forms a blackened scab. This is considered as the rejection day. The mean graft survival time (number of days±S.D.) of the drug treatment group is compared with the control group.

[4] = alone or in combination with picibanil; cited from earlier work
[5] = system: experimental allergic encephalomyelitis; conditions: model for multiple sclerosis; cited from earlier work
[6] = system: mixed lymphocyte reaction; assay: Popliteal lymph node (PLN) test procedure (mixed lymphocyte reaction in vivo); set-up: species or system C3H mice (recipient), BALB/c donors; conditions: ratio relative to rapamycin (rapamycin 1.0); drug daily p.o. Day 0 to Day 4
Protocol: as §1
A mixed lymphocyte reaction (MLR) occurs when lymphoid cells from genetically distinct animals are combined in tissue culture. Each stimulates the other to undergo blast transformation which results in increased DNA synthesis that can be quantified by the incorporation of tritiated thymidine. Since stimulating a MLR is a function of disparity at Major Histocompatibility antigens, as in vivo popliteal lymph node (PLN) test procedure closely correlates to host vs. graft disease. Briefly, irradiated spleen cells from BALB/c donors are injected into the right hind foot pad of recipient C3H mice. The drug is given daily, p.o. from Day 0 to Day 4. On Day 3 and Day 4, tritiated thymidine is given i.p., b.i.d.. On Day 5, the hind popliteal lymph nodes are removed and dissolved, and radioactivity counted. […] Percent suppression is calculated using the non-drug treated animals as allogenic control. […]

[7] = system: Candida albicans; conditions: particularly against Candida albicans, both in vitro and in vivo; cited from earlier work
[8] = ATCC38246, strain ATCC 38246, read-out: MIC
[9] = ATCC38247, strain ATCC 38247, read-out: MIC
[10] = ATCC38248, strain ATCC 38248, read-out: MIC

| MIC ([1]; ATCC10231, strain ATCC 10231, read-out: MIC) [µg/mL] | SMILES | MIC [1, 8] [µg/mL] | MIC [1, 9] [µg/mL] | MIC [1, 10] [µg/mL] | MIC ([1]; strain 3669, read-out: MIC) [µg/mL] | suppression of T-cell proliferation (LAF), in words [2] | LAF (ratio) [2] | Skin graft survival time (days + SD) [3] [days] | MIC ([1]; ATCC10231) [µg/mL] | antitumor activity [4] | effectiveness in experimental allergic encephalomyelitis model [5] | PLN (ratio) [6] | antifungal activity [7] |
| --- | --- | --- | --- | --- | --- | --- | --- | --- | --- | --- | --- | --- | --- |
| 0.05 (≈ 0.0486 µM) | CO[C@H]1C[C@@H]2CC[C@@H](C)[C@@](O)(O2)C(=O)C(=O)N2CCCC[C@H]2C(=O)O[C@H]([C@H](C)C[C@@H]2CC[C@@H](OCC(=O)OC(C)(C)C)[C@H](OC)C2)CC(=O)[C@H](C)/C=C(\C)[C@@H](O)[C@@H](OC)C(=O)[C@H](C)C[C@H](C)/C=C/C=C/C=C/1C [Example 2, 42-Deoxy-42-[2-(1,1-dimethylethoxy)-2-oxoethoxy]rapamycin] | 0.2 (≈ 0.194 µM) | 0.05 (≈ 0.0486 µM) | 0.1 (≈ 0.0972 µM) | 0.2 (≈ 0.194 µM) | suppressed T-cell proliferation | 0.27 | – | – | – | – | – | – |
| – | CCOC(=O)CO[C@@H]1CC[C@@H](C[C@@H](C)[C@@H]2CC(=O)[C@H](C)/C=C(\C)[C@@H](O)[C@@H](OC)C(=O)[C@H](C)C[C@H](C)/C=C/C=C/C=C(\C)[C@@H](OC)C[C@@H]3CC[C@@H](C)[C@@](O)(O3)C(=O)C(=O)N3CCCC[C@H]3C(=O)O2)C[C@H]1OC [Example 1, 42-Deoxy-42-(2-ethoxy-2-oxoethoxy)rapamycin] | 0.1 (≈ 0.1 µM) | 0.2 (≈ 0.2 µM) | 0.1 (≈ 0.1 µM) | 0.05 (≈ 0.05 µM) | suppressed T-cell proliferation | 0.46 | 7.5 ± 1.2 | 0.5 (≈ 0.5 µM) | – | – | – | – |
| – | CO[C@H]1C[C@@H]2CC[C@@H](C)[C@@](O)(O2)C(=O)C(=O)N2CCCC[C@H]2C(=O)O[C@H]([C@H](C)C[C@@H]2CC[C@@H](O)[C@H](OC)C2)CC(=O)[C@H](C)/C=C(\C)[C@@H](O)[C@@H](OC)C(=O)[C@H](C)C[C@H](C)/C=C/C=C/C=C/1C [Rapamycin, rapamycin] | – | – | – | – | – | – | – | – | shown to have antitumor activity | effective in the experimental allergic encephalomyelitis model | 1.0 | found to have antifungal activity |
